Results published in ChEMBL document CHEMBL2074544 (J Lipid Res, 2000).

Experiments:
[1] = molecular target: T1, Solute carrier family 22 member 1 (Mus musculus, UniProt O08966); assay: TP_TRANSPORTER: inhibition of TEA uptake (TEA: 50 uM, TMA: 10000 uM) in Oct1-expressing BALB/3T3 cells; type: functional, cell-based; set-up: scale not given: the % may be the effect or the level left
T1 sequence (O08966 whole entry): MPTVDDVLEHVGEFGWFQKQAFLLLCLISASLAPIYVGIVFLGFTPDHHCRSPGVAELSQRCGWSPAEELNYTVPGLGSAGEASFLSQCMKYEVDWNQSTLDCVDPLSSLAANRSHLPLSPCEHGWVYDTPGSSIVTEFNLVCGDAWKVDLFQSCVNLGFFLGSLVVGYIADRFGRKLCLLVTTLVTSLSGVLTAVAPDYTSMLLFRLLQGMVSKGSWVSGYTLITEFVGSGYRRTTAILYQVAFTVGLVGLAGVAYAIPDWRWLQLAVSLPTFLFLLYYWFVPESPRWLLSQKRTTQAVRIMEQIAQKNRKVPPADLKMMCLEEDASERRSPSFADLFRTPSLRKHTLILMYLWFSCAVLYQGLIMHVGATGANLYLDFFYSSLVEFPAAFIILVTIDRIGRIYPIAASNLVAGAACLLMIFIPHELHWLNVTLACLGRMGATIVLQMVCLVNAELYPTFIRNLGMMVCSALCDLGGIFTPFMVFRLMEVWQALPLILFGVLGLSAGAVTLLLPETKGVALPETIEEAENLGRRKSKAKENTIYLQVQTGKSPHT

[2] = molecular target: T2, Oct1 (Solute carrier family 22 member 1) (Mus musculus, UniProt O08966); assay: TP_TRANSPORTER: inhibition of TEA uptake (TEA: 50 uM, Quinidine: 1000 uM) in Oct1-expressing BALB/3T3 cells; type: functional, cell-based; set-up: scale not given: the % may be the effect or the level left; details: BALB/3T3 cells expressing Oct1, probe TEA (50 uM), read-out: Activity
T2 sequence (O08966 whole entry): T1 sequence (O08966 whole entry)

[3] = molecular target: T2, Oct1 (Solute carrier family 22 member 1); assay: in vitro; details: BALB/3T3 cells expressing Oct1, probe TEA (50 uM)
Description: TP_TRANSPORTER: inhibition of TEA uptake (TEA: 50 uM, Thiamine: 10000 uM) in Oct1-expressing BALB/3T3 cells

[4] = molecular target: T2, Oct1 (Solute carrier family 22 member 1); assay: TP_TRANSPORTER: inhibition of TEA uptake (TEA: 50 uM, NMN: 10000 uM) in Oct1-expressing BALB/3T3 cells; type: functional, cell-based; set-up: scale not given: the % may be the effect or the level left; details: BALB/3T3 cells expressing Oct1, probe TEA (50 uM), read-out: Activity
[5] = substrate: C[N+](C)(C)CCO; assay: cells, lysate or membranes named
[6] = substrate: CCCC[N+](CCCC)(CCCC)CCCC; assay: cells, lysate or membranes named

With `C[N+](C)(C)C.[Cl-]` [TETRAMETHYLAMMONIUM] the Activity [1] was 0%.

`C=C[C@H]1C[N@@]2CC[C@H]1C[C@@H]2[C@@H](O)c1ccnc2ccc(OC)cc12` [QUINIDINE] showed an activity at 1000 µM [2] of 0%.

In the case of `Cc1ncc(C[n+]2csc(CCO)c2C)c(N)n1` [THIAMINE ION], the activity at 10000 uM [3] is reported as 0%.

Molecule `CNC(=O)c1cccnc1` [NICOTINYL METHYLAMIDE] has an activity at 10000 uM [4] of 0%.

B1: Solute carrier family 22 member 1 (Mus musculus) (protein)
chain: T1 sequence (O08966 whole entry)
B1 gave a Km [5] of 42 µM and a Km [6] of 43 µM.
